{"source": "patent US20160274087A1", "about": "“SCREENING ASSAY FOR AGENTS THAT INFLUENCE BETA CELL NUMBER AND/OR PHENOTYPE” (VRIJE UNIVERSITEIT BRUSSEL, priority 2013, published 2016)", "key": {"[1]": {"test_system": "selected gene targets in FACS-purified beta cells", "test": "Q-PCR on FACS-purified beta cells from dexamethasone-injected rats", "settings": "5 single injections DEX 1 mg/kg BW daily", "excerpt": "Control rats were given vehicle (saline).\nRNA was extracted using RNeasy columns (Qiagen), and quality was verified using an Agilent Bioanalyzer. Following removal of genomic DNA (TURBO DNA-free, Ambion) and reverse-transcription (High-Capacity cDNA Archive Kit, Applied Biosystems), gene targets were amplified on an ABI Prism 7700 using TaqMan Universal PCR Master Mix and TaqMan MGB probes (Applied Biosystems, assay IDs available on request). Expression levels of target genes were normalized to 4 housekeeping genes (β-actin, HPRT1, rplp2 and psmc5) (ΔCt) and expressed versus a control condition as calibrator (comparative ΔΔCt method)."}, "[2]": {"test_system": "beta cells", "test": "Immunohistochemical analysis of Ki67 in pancreas after dexamethasone injection", "type": "in vivo, rat", "settings": "DEX 1 mg/Kg BW daily for 5 days; data not shown"}, "[3]": {"test": "Metabolic effects of in vivo dexamethasone administration"}, "[4]": {"test_system": "rat beta cells", "test": "Beta cell viability / cell death (propidium iodide assay)", "type": "cell-based", "settings": "LOPAC screen at 1 μM; adult rat beta cells; day 6; control medium 97", "text": "Numbers of living beta cells were obtained by subtracting the PI-positive cell numbers from the Ho-positive cell numbers, and correcting for the percent insulin-negative cells, as determined following insulin-immunofluorescence staining. They were expressed as percent of the numbers on day 1. […] To detect beta cells that underwent two successive cycles, cells were sequentially exposed to two different thymidine-analogs, first EdU from day 3 to 6, and then BrdU (100 μmol/l) from day 7 to 10, with a 24-hour label-free period in between. EdU-positive (EdU^+) nuclei were detected with the Click-iT Assay kit (Invitrogen), while BrdU-positive (BrdU^+) nuclei were identified with anti-BrdU antibody.\nAbsolute number of cells was determined by whole-well imaging using the BD-PathwayBioimager855 (BD-Biosciences). IPLab and AttoVision software packages (BD-Biosciences) were used for image background subtraction, segmentation and quantification.\nFreshly purified beta cells were cultured in control medium for 24 h prior to the addition of the LOPAC test compounds (day 1). The culture medium was refreshed on day 3 and the cells were then cultured further with 5-ethynyl-2′-deoxyuridine (EdU; 10 μM) up to day 6. […] Thus, a compound is considered a hit only if it increases the percent EdU incorporation to above three standard deviation of the plate-averaged percent EdU incorporation."}, "[5]": {"biological_target": "T1, glucocorticoid receptor (GR) (Homo sapiens, UniProt P04150)", "T1 sequence (P04150 1-777)": "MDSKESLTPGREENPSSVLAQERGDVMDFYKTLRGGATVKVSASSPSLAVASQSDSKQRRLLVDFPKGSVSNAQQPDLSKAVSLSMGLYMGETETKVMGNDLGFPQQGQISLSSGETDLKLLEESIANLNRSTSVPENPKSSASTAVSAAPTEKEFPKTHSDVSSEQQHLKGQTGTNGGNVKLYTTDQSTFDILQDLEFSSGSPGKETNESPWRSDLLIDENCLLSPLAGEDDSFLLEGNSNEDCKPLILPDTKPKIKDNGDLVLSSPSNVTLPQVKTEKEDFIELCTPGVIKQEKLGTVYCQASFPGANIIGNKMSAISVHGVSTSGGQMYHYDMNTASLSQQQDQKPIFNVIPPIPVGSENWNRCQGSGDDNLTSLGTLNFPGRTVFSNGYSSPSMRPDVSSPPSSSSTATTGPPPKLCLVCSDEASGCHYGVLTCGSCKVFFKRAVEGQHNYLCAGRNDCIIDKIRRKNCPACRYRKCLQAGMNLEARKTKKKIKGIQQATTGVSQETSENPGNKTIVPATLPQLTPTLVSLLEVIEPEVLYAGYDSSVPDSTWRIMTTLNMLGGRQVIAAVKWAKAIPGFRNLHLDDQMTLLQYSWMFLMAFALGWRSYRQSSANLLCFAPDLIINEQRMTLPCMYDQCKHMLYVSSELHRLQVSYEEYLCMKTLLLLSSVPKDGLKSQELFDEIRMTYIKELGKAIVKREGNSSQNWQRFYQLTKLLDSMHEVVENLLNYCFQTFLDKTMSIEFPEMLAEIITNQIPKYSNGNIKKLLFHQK", "settings": "cited from earlier work"}, "[6]": {"test_system": "rat beta cells", "test": "Beta cell DNA synthesis/proliferation by EdU (and BrdU) incorporation, incl. LOPAC screen", "type": "cell-based", "settings": "LOPAC screen at 1 μM, adult rat beta cells, EdU day 3 to 6; for Percent EdU+ cells: control medium 5.6; for Z-Score: hit cut-off three standard deviations", "method": "On day 1, 9 and 15 of culture, total numbers of living beta cells per well were determined by semi-automatic cell count, after Hoechst 33342 (Ho) and propidium iodide (PI) staining. Numbers of living beta cells were obtained by subtracting the PI-positive cell numbers from the Ho-positive cell numbers, and correcting for the percent insulin-negative cells, as determined following insulin-immunofluorescence staining. They were expressed as percent of the numbers on day 1. Each condition was also evaluated for increases in the percentage of proliferating beta cells (incorporating the thymidine-analogue 5-ethynyl-2′-deoxyuridine, EdU; 100 μmol/l). To detect beta cells that underwent two successive cycles, cells were sequentially exposed to two different thymidine-analogs, first EdU from day 3 to 6, and then BrdU (100 μmol/l) from day 7 to 10, with a 24-hour label-free period in between. EdU-positive (EdU^+) nuclei were detected with the Click-iT Assay kit (Invitrogen), while BrdU-positive (BrdU^+) nuclei were identified with anti-BrdU antibody.\nFreshly purified beta cells were cultured in control medium for 24 h prior to the addition of the LOPAC test compounds (day 1). The culture medium was refreshed on day 3 and the cells were then cultured further with 5-ethynyl-2′-deoxyuridine (EdU; 10 μM) up to day 6. Cell viability and percentage EdU incorporation were quantified after imaging and image analysis using the BD Pathway Bioimager, as described before (Assefa et al., 2014). To test the significance of compound effect on beta cell proliferation, average Z-score for each compound was calculated and a cut-off for potential positive hits was set at a Z-score of greater than three standard deviations. Thus, a compound is considered a hit only if it increases the percent EdU incorporation to above three standard deviation of the plate-averaged percent EdU incorporation.\nSorted beta cells were seeded in 384-well or 6-well plates coated with 804G matrix, and kept in culture for up to 15 days at 37° C. 5% CO2 using Ham F10 supplemented with 1 mM L-glutamine, 0.1 mg/ml streptomycin, 0.075 mg/ml penicillin, 50 μM of isobutyl-1-methylxanthine (IBMX) at 10 mM D-glucose with and without synthetic GCs (6 methyl-prednisolone (6MP), dexamethasone (DEX), GR-modulators (compound A (CPA), mifepristone (MIF), and NFκB inhibitors (JSH-23 en Bay11-7085). Total cell number and beta cell viability was evaluated after incubation with Hoechst 33342 and propidium iodide. All chemicals were from Sigma Life Sciences or Merck. Quantification of cell numbers and analysis of beta-cell viability was done using the Pathway Bioimager (BD Biosciences) and using IPlab and Attovision software for background subtraction as described prior (Assefa et al., 2014). Replicating beta cells were quantified after 24 or 72 hrs incubation with 5-ethynyl-2′-deoxyuridine (EdU, a thymidine analog) using the ClickIT EDU Alexa Fluor assay (Invitrogen). EdU-positive cells were expressed as percentage of total cell number."}}, "note": "Marks after values point to notes of the source that are not given here.", "data": [{"molecule": "C[C@@H]1C[C@H]2[C@@H]3CCC4=CC(=O)C=C[C@]4(C)[C@@]3(F)[C@@H](O)C[C@]2(C)[C@@]1(O)C(=O)CO", "note": "[DEX, dexamethasone]", "values": [{"measurement": "Cyclin B1 mRNA level (ΔΔCt values relative to control, adult male)", "setting": "[1]", "value": "6.5 ± 2.5 ^3"}, {"measurement": "Cyclin B2 mRNA level (ΔΔCt values relative to control, adult male)", "setting": "[1]", "value": "10.8 ± 5.1 ^3"}, {"measurement": "CyclinD1 mRNA level (ΔΔCt values relative to control, adult male)", "setting": "[1]", "value": "0.9 ± 0.4 ^"}, {"measurement": "DLK1 mRNA level (ΔΔCt values relative to control, adult male)", "setting": "[1]", "value": "33.0 ± 19.1 ^3"}, {"measurement": "FKBP5 mRNA level (ΔΔCt values relative to control, adult male)", "setting": "[1]", "value": "2.4 ± 0.2 ^"}, {"measurement": "ICAM1 mRNA level (ΔΔCt values relative to control, adult male)", "setting": "[1]", "value": "0.1 ± 0.1 ^3"}, {"measurement": "MafA mRNA level (ΔΔCt values relative to control, adult male)", "setting": "[1]", "value": "0.3 ± 0.1 ^"}, {"measurement": "MafB mRNA level (ΔΔCt values relative to control, adult male)", "setting": "[1]", "value": "0.6 ± 0.2 ^"}, {"measurement": "NPY mRNA level (ΔΔCt values relative to control, adult male)", "setting": "[1]", "value": "3.3 ± 0.5 ^3"}, {"measurement": "NR3C1 mRNA level (ΔΔCt values relative to control, adult male)", "setting": "[1]", "value": "0.5 ± 0.1 ^2"}, {"measurement": "Pdx1 mRNA level (ΔΔCt values relative to control, adult male)", "setting": "[1]", "value": "0.4 ± 0.2 ^"}, {"measurement": "increase of the percentage beta cells positive for Ki67", "setting": "[2]", "value": 3, "unit": "fold"}, {"measurement": "loss of body weight", "setting": "[3]; DEX 1 mg/Kg BW daily for 5 consecutive days", "value": 20, "unit": "%"}, {"measurement": "insulin content", "setting": "[3]; DEX 1 mg/Kg BW daily for 5 days, MOCK 48 ± 7", "value": "22 ± 3", "unit": "ng/K beta cells"}, {"measurement": "IPGT 90 min", "setting": "[3]; DEX 1 mg/Kg BW daily for 5 days, MOCK 81 ± 3", "value": "278 ± 44", "unit": "mg/dL"}, {"measurement": "IPGT 120 min", "setting": "[3]; DEX 1 mg/Kg BW daily for 5 days, MOCK 82 ± 2", "value": "227 ± 62", "unit": "mg/dL"}, {"measurement": "IPGT 60 min", "setting": "[3]; DEX 1 mg/Kg BW daily for 5 days, MOCK 83 ± 5", "value": "375 ± 54", "unit": "mg/dL"}, {"measurement": "Fasting glycemia", "setting": "[3]; DEX 1 mg/Kg BW daily for 5 days, MOCK 85 ± 3", "value": "169 ± 77", "unit": "mg/dL"}, {"measurement": "Islet insulin content", "setting": "[3]; DEX 1 mg/Kg BW daily for 5 days, MOCK 100", "value": "37 ** ng/islet"}, {"measurement": "IPGT 30 min", "setting": "[3]; DEX 1 mg/Kg BW daily for 5 days, MOCK 180 ± 14", "value": "456 ± 41", "unit": "mg/dL"}, {"measurement": "IPGT 15 min", "setting": "[3]; DEX 1 mg/Kg BW daily for 5 days, MOCK 360 ± 43", "value": "497 ± 16", "unit": "mg/dL"}, {"measurement": "Serum insulin", "setting": "[3]; DEX 1 mg/Kg BW daily for 5 days, MOCK 4927 ± 724", "value": "8447 ± 472", "unit": "pg/mL"}, {"measurement": "Body weight Day 6", "setting": "[3]; DEX 1 mg/Kg BW daily i.p. for 5 days, MOCK 382 ± 13", "value": "304 ± 11", "unit": "g"}, {"measurement": "Body weight Day 0", "setting": "[3]; DEX group before treatment, MOCK 356 ± 8", "value": "363 ± 13", "unit": "g"}]}, {"molecule": "C[C@]12C=CC(=O)C=C1CC[C@H]1[C@@H]3C[C@@H](O)[C@](O)(C(=O)CO)[C@@]3(C)C[C@H](O)[C@@]12F", "note": "[Triamcinolone]", "values": [{"measurement": "Percent viable cells", "setting": "[4]", "value": 99, "unit": "%"}, {"measurement": "Relative Potencies GR", "setting": "[5]", "value": 5}, {"measurement": "Percent EdU+ cells", "setting": "[6]", "value": 31.1, "unit": "%"}, {"measurement": "Z-Score", "setting": "[6]", "value": 5.9}]}, {"molecule": "C[C@]12CCC(=O)C=C1CC[C@@H]1[C@@H]2CC[C@@]2(C)[C@H]1CC[C@]2(O)C(=O)CO", "note": "[Cortexolone]", "values": [{"measurement": "Percent viable cells", "setting": "[4]", "value": 97, "unit": "%"}, {"measurement": "Percent EdU+ cells", "setting": "[6]", "value": 13.1, "unit": "%"}, {"measurement": "Z-Score", "setting": "[6]", "value": 4.1}]}]}
